# Experimental data published in patent US20240041982A1, “EXTENDED RELEASE HYDROGEL CONJUGATES OF C-NATRIURETIC PEPTIDES” (ProLynx LLC, priority 2020, published 2024).
# Bridge positions count the residues as written; N and C are the ends. Ends that are not written are not given here.
# Key:
# [1] = tested on: wild-type male mice (FVB/nJ); experiment: Pharmacodynamics in juvenile mice: growth and bone length by X-ray; type: in vivo; details: QD 70 nmol/kg; after 5 weeks of treatment
# Description: Three-week old wild-type male mice (FVB/nJ; Charles River Laboratory, Inc) were administered subcutaneous injections of the conjugates of Example 3 at either a weight-adjusted (nmol/kg) or constant (nmol/animal independent of the initial weight) dose over 35 days. For experiments using constant doses/animal, the conjugate of Example 3 wherein R^1=isopropylsulfonyl (conjugate 4A) was administered at either 20 or 50 nmol/mouse; the conjugate of Example 3 wherein R^1=(N,N-dimethylamino)sulfonyl (conjugate 4B) was administered at either 85 or 600 nmol/mouse. For experiments using weight-adjusted doses/animal, conjugate 4A was administered at either 1.5 or 2.2 umol/kg; conjugate 4B was administered at 6.1 umol/kg. Doses were calculated based on the body weight just prior to dosing and performed at approximately the same time of day. Comparator animals were dosed with either [Gln^6,14]CNP-38 or vosoritide at 70 nmol/kg formulated in 30 mM acetic acid pH 4.0 containing 10% (w/v) sucrose and 1% (v/v) benzyl alcohol (Wendt; Breinholt), and control animals were dosed with the formulation buffer (isotonic acetate (10 mM Na Acetate, 143 mM NaCl), pH 5.0, 0.05% Tween 20 buffer containing 1.2% sodium hyaluronate. Daily weight-adjusted doses were calculated based on the body weight just prior to dosing and performed at approximately the same time each day.
# Blood collections were made via tail vein with the addition of protease inhibitors (Halt protease inhibitor cocktail, ThermoScientific) and processed with K2EDTA to provide ˜15-20 μL plasma, for analysis of free [Gln^6,14]CNP-38. For the mice treated with the conjugate 4A, blood collection occurred at 0, 24, 168, 192, 336, 360, 504, 528, 672 and 840 hr. For the mice treated with conjugate 4B, blood collection occurred at 0, 24, 168, 336, 504, 672 and 840 hr.
# Body weight, tail length and naso-anal length were collected at study initiation and were measured weekly during the in-life treatment period. […] The naso-anal (distance from the tip of the nose to the anus) and the tail length (distance from the anus to the tip of the tail) were measured and recorded. The same ruler was used for all measurements, and all measurements were conducted and recorded in centimeters. Total length (TL) is derived from the addition of the measured tail length and naso-anal length.
# On day 35, the mice were anesthetized and in addition to the nasal-anal and tail length measurements, bone length measurements were made by digital X-ray (spine, right femur, right tibia, humerus and ulna). Following deep anesthesia with isoflurane, the mice were placed in the prone position and the length of the spine (lateral view, distance from the most cranial end of the C1 vertebra to the most caudal end of the S4 vertebra and accounting for curvature manually), the right femur (distance from the most proximal femoral head ossification center to the most distal ossification center in dorso-ventral view), the right tibia (distance from the most proximal ossification center to the most distal ossification center in dorso-ventral view), the right humerus (distance from the most proximal ossification center to the most distal ossification center in dorso-ventral view), and the right ulna (distance from the most proximal ossification center to the most distal ossification center in dorso-ventral view) of each mouse were measured by x-ray using a Spectral Imaging Instruments AMI HTX and the associated Aura software.
# [2] = in vivo; cited from earlier work
# NPR-B = molecular target: T1, NPR-B (Homo sapiens, UniProt P20594); details: physiological concentrations (picomolar); cited from earlier work
# T1 sequence (P20594 23-1047): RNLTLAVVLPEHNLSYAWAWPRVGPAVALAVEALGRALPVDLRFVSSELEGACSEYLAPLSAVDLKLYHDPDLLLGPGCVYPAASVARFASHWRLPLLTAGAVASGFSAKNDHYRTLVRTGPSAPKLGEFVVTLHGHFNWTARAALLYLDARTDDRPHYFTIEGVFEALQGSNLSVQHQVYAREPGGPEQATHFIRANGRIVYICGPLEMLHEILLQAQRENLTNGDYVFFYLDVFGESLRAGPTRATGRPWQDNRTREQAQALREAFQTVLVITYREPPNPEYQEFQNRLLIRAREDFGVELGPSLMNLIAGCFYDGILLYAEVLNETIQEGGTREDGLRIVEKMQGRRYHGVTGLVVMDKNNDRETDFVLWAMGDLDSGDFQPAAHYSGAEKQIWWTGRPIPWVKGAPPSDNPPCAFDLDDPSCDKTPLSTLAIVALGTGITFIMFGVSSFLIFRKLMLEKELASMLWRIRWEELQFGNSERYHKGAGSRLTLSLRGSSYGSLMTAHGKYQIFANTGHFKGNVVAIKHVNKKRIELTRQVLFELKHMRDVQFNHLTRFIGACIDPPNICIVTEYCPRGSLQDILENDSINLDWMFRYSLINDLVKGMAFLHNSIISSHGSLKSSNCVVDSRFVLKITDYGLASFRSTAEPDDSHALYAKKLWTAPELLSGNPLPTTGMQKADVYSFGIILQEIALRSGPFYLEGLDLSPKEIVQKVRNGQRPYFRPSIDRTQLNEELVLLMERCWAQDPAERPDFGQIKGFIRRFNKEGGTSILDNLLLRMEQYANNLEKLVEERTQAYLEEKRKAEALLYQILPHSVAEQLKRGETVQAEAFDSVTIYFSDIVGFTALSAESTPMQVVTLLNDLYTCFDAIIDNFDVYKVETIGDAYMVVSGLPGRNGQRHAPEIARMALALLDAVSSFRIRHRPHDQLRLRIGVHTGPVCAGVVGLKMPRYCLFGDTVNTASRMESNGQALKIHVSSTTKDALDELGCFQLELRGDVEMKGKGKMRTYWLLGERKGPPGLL
# [3] = in vivo; cited from earlier work; remark: listed apart in the source
substance,measurement,setting,value
"(Gln^6,14)CNP38 (LQEHPQARKYKGAQKKGLSKGCFGLKLDRIGSMSGLGC; disulfide 22-38) [[Gln6, 14] CNP-38]",Femur length % change from vehicle,[1],(13.6%)
same,Humerus length % change from vehicle,[1],(0.8%)
same,Spine length % change from vehicle,[1],(10.1%)
same,Tibia length % change from vehicle,[1],(8.7%)
same,Ulna length % change from vehicle,[1],(5.4%)
CNP22,plasma half-life,[2],~3 min
same,affinity for NPR-B relative to ANP and BNP,NPR-B,50-500 times
vosoritide (PGQEHPNARKYKGANKKGLSKGCFGLKLDRIGSMSGLGC; disulfide 23-39),half-life,[2],20 min
same,known side-effects,[3],increased heart rate and a drop in arterial blood pressure
